Patent publication US20110237535A1, “Use of Induced Pluripotent Cells and other Cells for Screening Compound Libraries” (priority 2010, published 2011)
Entries after “also recorded” stand apart in the source; their conditions may differ. Where two headings read alike, the source gives them in different places.

Legend:
[1] = tested on: HeLa cells; type: cell-based
Experimental: In another experiment HeLa cells were treated with 100 uM of tamoxifen (a calcium influx stimulator), doxorubicin (a DNA damaging agent), cycloheximide (a protein synthesis inhibitor), digitonin (a mild detergent), and a buffer, and monitored every 15 minutes on a BIND™ Reader for 40 hours in a 37° C. incubator. The cytotoxic compounds each have distinct mechanisms of action that have distinct kinetic profiles in the assays of the invention. Toxins can be tested for their effect on differing types of cells and can be placed into a class or sub-class of toxins (e.g. calcium influx stimulator) based on their kinetic profiles. These assays have a higher throughput than electrical impedance testing for screening and profiling of toxic compounds.

[2] = tested on: mES-derived cardiomyocytes (Cor.At); assay: Doxorubicin toxicity on mES-derived cardiomyocytes, constant PWV monitoring; type: cell-based, murine
Experimental: mES-derived cardiomyocytes (Cor.At) were obtained from Axiogenesis/Lonza. 5,000 cells per well were plated on fibronectin-coated 384 well biosensor plates for 24 h before experiment. These cells beat in culture. Cells were treated with doxorubicin for 17 h at 37° C. with constant monitoring using the BIND™ Reader. […] There is an oscillation of PWVs that indicates the beating of the cells. The amplitude of the beating becomes stronger over time. That is, there is Y axis spread of the PWV reading grows larger over time as the cells beat stronger in culture.

[3] = tested on: Murine embryonic stem cell-derived cardiomyocytes; assay: Beating amplitude and frequency of cardiomyocytes, PWV at 4 reads per second; type: cell-based
Experimental: Murine embryonic stem cell-derived cardiomyocytes were added to wells of a biosensor and a BIND™ Reader recorded PWVs at the rate of 4 reads per second. One well was treated with KCl and another well was not treated. The cells beat synchronously when cultured on BIND™ optical biosensors and the frequency of the beating can be detected. […] The BIND™ Reader detects beating frequency and rate as oscillations of positive-negative PWV shifts. Kinetic PWV profiles can be used to accurately measure beating rate and frequency. Therefore, the assay provides an ultra high-throughput assay to measure off-target drug effects on cardiotoxicity and contractility.
In another experiment the cardiomyocytes were plated at 20,000 cells per well on fibronectin coated biosensor plates. The cells were incubated for 72 h at 37° C. before the experiment. The cells were monitored for 3 minutes before KCl was added to 50 mM final concentration.
In another experiment cardiomyocytes were treated for 17 hours with several different concentrations of doxorubicin (10 μM, 1 μM, 0.1 μM, 0.01 μM, and 0 μM). The beating amplitude and frequency was measured at 4 reads/second prior to doxorubicin treatment, then again after the 17 hour doxorubicin incubation.

[4] = tested on: cardiomyocytes; assay: Cardiomyocyte beating recorded with refined high-speed BIND Cartridge Reader; type: cell-based; conditions: 6, 10 and 15 minutes after addition, FIG. 17
From the text: An Ocean Optics HT2000+ spectrometer in a BIND™ Cartridge Reader was altered so that the slit that allows light into the spectrometer was widened, allowing more light to enter the enter the spectrometer. Therefore, recordings of up to 1000 Hz, i.e. up to 1000 readings/second can be obtained when the BIND™ Cartridge Reader is “parked” (i.e., the BIND™ Cartridge Reader remains in one position over, e.g., a well holding cells). The recordings are made continually in real-time. Recordings can be taken at about 2, 4, 10, 50, 80, 100, 250, 280, 300, 400, 500, 600, 700, 800, 900, 1,000 or more Hz (or any range between about 2 and about 1,000 Hz).
The refined BIND™ Cartridge Reader was used to take measurements of cardiomyocyte beating. […] By comparison, the data in Examples 1 and 2 was measured at 4 Hz. The increased sampling rate allows a much more refined look at the shape of each individual beat. Different beating “phenotypes” can be determined from well-to-well, in addition, the difference between synchronous beating across the well and asynchronous beating can be determined. […]
Amitriptyline is a tricyclic antidepressant sold under the trade name Elavil™. […] Amitriptyline was added to cardiomyocytes that were beating in culture and PWVs were constantly monitored. […]

[5] = FIG. 6-9, cell line not restated in these blocks
[6] = KCl-treated well vs untreated well, FIG. 11

With `CC[C@]1(O)C[C@@H]2CN(CCc3c([nH]c4ccccc34)[C@@](C(=O)OC)(c3cc4c(cc3OC)N(C)[C@H]3[C@@](O)(C(=O)OC)[C@H](OC(C)=O)[C@]5(CC)C=CCN6CC[C@]43[C@@H]65)C2)C1` [vinblastine] the “kinetic profile (PWV over time)” value [1, 5] was “rapid acute response and then a gradual negative PWV shift over the long term”.

`[K+].[K+].[O]=[Cr](=[O])([O-])[O][Cr](=[O])(=[O])[O-]` [potassium dichromate] was tested, and the “kinetic profile (PWV over time)” value [1] was “sudden onset, steep decline, followed by a negative PWV plateau”.

With 4-hydroxy-tamoxifen the “kinetic profile (PWV over time)” value [1, 5] was “faster onset of toxicity than tamoxifen”.

In the case of `O=C(c1ccc(OCCN2CCCCC2)cc1)c1c(-c2ccc(O)cc2)sc2cc(O)ccc12` [raloxifene], the “kinetic profile (PWV over time)” value [1, 5] is reported as “lack of cytotoxic response”.

In the case of `CC[C@@]1(O)C(=O)OCc2c1cc1n(c2=O)Cc2cc3ccccc3nc2-1` [Camptothecin], the “kinetic profile (PWV over time)” value [1, 5] is reported as “somewhat different kinetic profile”.

For `COc1cccc2c1C(=O)c1c(O)c3c(c(O)c1C2=O)C[C@@](O)(C(=O)CO)C[C@@H]3O[C@H]1C[C@H](N)[C@H](O)[C@H](C)O1` [doxorubicin], the PWV readings ([2]; doxorubicin 17 h at 37° C., 5,000 cells per well, FIG. 10) was “PWV readings become negative; also recorded: dose dependant”, the “amplitude of beating over time” value ([2]; doxorubicin 17 h at 37° C., FIG. 10A) was “becomes weaker over time” and the “kinetic profile (PWV over time)” value [1, 5] was “sudden onset, steep decline, followed by a negative PWV plateau”. The “amplitude and frequency of beating” value ([3]; 17 hours doxorubicin at 10 μM, 1 μM, 0.1 μM, 0.01 μM, 0 μM, FIG. 14) was “disrupted by doxorubicin in a concentration-dependent manner”.

In the case of `CC/C(=C(\c1ccccc1)c1ccc(OCCN(C)C)cc1)c1ccccc1` [tamoxifen], the “kinetic profile (PWV over time)” value [1, 5] is reported as “sharp downward shift in PWV at early time points”.

`CO[C@@]12[C@H](COC(N)=O)C3=C(C(=O)C(C)=C(N)C3=O)N1C[C@@H]1N[C@@H]12` [mitomycin] was tested, and the “kinetic profile (PWV over time)” value [1, 5] was “sudden onset, steep decline, followed by a negative PWV plateau”.

For `N.N.[Cl][Pt][Cl]` [Cisplatin], the “kinetic profile (PWV over time)” value [1, 5] was “sudden onset, steep decline, followed by a negative PWV plateau”.

With `[Cl-].[K+]` [KCl] the “rate and frequency of the beating” value ([3]; KCl 50 mM final concentration, added after 3 minutes of monitoring, 20,000 cells per well, FIG. 13) was “drastically reduced”, the “amplitude of the beating” value [3, 6] was “loss of amplitude of the beating” and the “frequency of the beating” value [3, 6] was “decrease in the frequency of the beating”.

With `CN(C)CCC=C1c2ccccc2CCc2ccccc21` [amitriptyline] the “beating pattern after compound addition” value [4] was “change from regular, synchronous beating to irregular, non-synchronous beating”.
